# Assay results reported in patent publication US6358921B1, “Antimicrobial peptide compositions and method” (priority 1996, dated 2002).
# Tests used:
# [1] = tested on: B. subtilis; format: cell-based, Bacillus subtilis
# Source text: (§1) The following bacterial strains were utilized: Escherichia coli UB1005 (wt) and its antibiotic supersusceptible derivative DC2 (Clark, 1984); Excherichia coli SC9251 and its polymixin B rasistant mutant pmrA SC9252 (Peterson, et al., 1987) Pseudomonas aeruginosa H187 (wt) (Angus, et al., 1987) and its antibiotic-sensitive derivative H188 (Zimmerman, W, Antimicrob. Agents Chemother. 18: 94-100, 1980); methicillin sensitive Staphylococcus aureus K147 (Kreiswirth, et al., 1983); Staphylococcus aureus SAP0017, a methicillin resistant clinical isolate from Dr. A. Chow (University of British Columia); Bacillus subtilis, an environmental wt lab strain. Enterococcus faecalis are ATCC 29212 cells and Staphylococcus epidermidis was a clinical isolate from Dr. D. Speert (University of British Columbia). Antifungal activity was tested using a clinical lab isolate of Candida albicans. Salmonella typhinurium C57 and C610 (Fields, P.I., et al., Science 243: 1059-1062 (1989) Corynebacterium xerosis was an environmental isolate (University of British Columbia).
# (§2) It is now apparent that agar-based assays severely underestimate antifungal activity as well as activity against gram negative microorganisms (Kondejewski, et al., 1996). Consequently, in the studies reported herein, a liquid-broth method was used to measure the antibiotic properties of the peptides. […] Briefly, cells were grown overnight at 37° C. in LB and diluted in the same medium. Serial dilutions of antibiotics were added to the microtitre plates in a volume of 100 μL followed by 10 μL of bacteria to give a final inoculum of 5×10^5 CFU/mL. Plates were incubated at 37° C. overnight and MICs determined as the lowest antibiotic concentration that inhibited growth. […]
# [2] = tested on: C. xeroses; format: cell-based, Corynebacterium xerosis
# Source text: as §1, §2
# [3] = tested on: S. typhinurium C610; format: cell-based, Salmonella typhinurium
# Source text: as §1, §2
# [4] = tested on: S. typhinurium C587; format: cell-based, Salmonella typhinurium
# Source text: as §1, §2
# [5] = Displacement of dansyl-polymyxin from LPS; format: binding, P. aeruginosa; conditions: read-out: LPS binding affinity: peptide concentration to displace 50% of dansyl-polymyxin B from LPS; Tables 1, 4, 7
# Source text: In order to determine whether ring size affects the interaction between the peptide and bacterial membranes, we studied the interaction between the GS ring analogs and bacterial lipopolysaccharide (LPS). It has been shown previously that dansyl-polymixin (DPX) is a good probe for cationic binding sites on both purified LPS as well as whole bacterial cells (Example 8; Moore, et al., 1986; Sawyer, et al., 1988; Hancock, 1981). […] The LPS binding activity of various GS analogs was investigated, as discussed above.
# Dansyl-polymixin (DPX) displacement from P. aeruginosa LPS was measured as described (Moore, et al., 1986). Briefly, peptides were titrated into cuvettes containing 3 μg of LPS per mL and 2.5 μM dansyl-polymixin (approximately 90% saturation of LPS binding sites) in 1 mL of 5 mM sodium HEPES buffer, pH 7.0, and the decrease in fluorescence recorded. A plot of the inverse of the percent inhibition as a function of the inverse of inhibitor concentration gave a value for I50, the inhibitor concentration resulting in 50% displacement of dansyl-polymixin from LPS (−1/× intercept).
# [6] = tested on: E. coli UB1005; format: cell-based, Escherichia coli; conditions: UB1005
# Source text: as §1, §2
# [7] = tested on: C. Albicans; format: cell-based, Candida albicans
# Source text: as §1, §2
# [8] = tested on: S. epidermidis; format: cell-based, Staphylococcus epidermidis
# Source text: as §1, §2
# [9] = tested on: E. faecalis; format: cell-based, Enterococcus faecalis
# Source text: as §1, §2
# [10] = tested on: P. aeruginosa H187; format: cell-based, Pseudomonas aeruginosa; conditions: H187
# Source text: as §1
# (§3) It is now apparent that agar-based assays severely underestimate antifungal activity as well as activity against gram negative microorganisms (Kondejewski, et al., 1996). Consequently, in the studies reported herein, a liquid-broth method was used to measure the antibiotic properties of the peptides. […] Briefly, cells were grown overnight at 37° C. in LB and diluted in the same medium. Serial dilutions of antibiotics were added to the microtitre plates in a volume of 100 μL followed by 10 μL of bacteria to give a final inoculum of 5×10^5 CFU/mL. Plates were incubated at 37° C. overnight and MICs determined as the lowest antibiotic concentration that inhibited growth.
# (§4) The results from antimicrobial and hemolytic assays are combined to provide a “Therapeutic Index” (TI) for each peptide with respect to individual microorganisms. As reported herein, the TI is calculated as the hemolytic activity divided by the antimicrobial activity. The TI thus is a measure of specificity of the particular peptide for microbial membranes as opposed to human blood cell membranes. In the present studies, antimicrobial activities are reported as minimum inhibitory concentrations (MIC)—the lowest concentration of peptide (μg/ml) found to inhibit growth of the particular microbe. Hemolytic activity is reported as the concentration of peptide that effected complete lysis of blood cells after four hours. Thus, in the context of the present invention high TI values indicate microbial specificity and relative lack of toxicity.
# [11] = tested on: E. coli DC2; format: cell-based, Escherichia coli; conditions: DC2
# Source text: as §1, §3, §4
# [12] = tested on: S. aureus SAP0017; format: cell-based, Staphylococcus aureus
# Source text: as §1, §3, §4
# [13] = tested on: S. aureus K147; format: cell-based, Staphylococcus aureus
# Source text: as §1, §3, §4
# [14] = tested on: P. aeruginosa H188; format: cell-based, Pseudomonas aeruginosa; conditions: H188
# Source text: as §1, §2
SMILES,Minimum Inhibitory Concentration (activity) [1],Minimum Inhibitory Concentration (activity) [2],Minimum Inhibitory Concentration (activity) [3],Minimum Inhibitory Concentration (activity) [4],IC50 [5],Minimum Inhibitory Concentration (activity) [6],Minimum Inhibitory Concentration (activity) [7],Minimum Inhibitory Concentration (activity) [8],Minimum Inhibitory Concentration (activity) [9],Minimum Inhibitory Concentration (activity) [10],Minimum Inhibitory Concentration (activity) [11],Minimum Inhibitory Concentration (activity) [12],Minimum Inhibitory Concentration (activity) [13],Minimum Inhibitory Concentration (activity) [14]
CC(C)C[C@@H]1NC(=O)[C@@H](CCCCN)NC(=O)[C@H](C(C)C)NC(=O)[C@@H](CCCCN)NC(=O)[C@H](CC(C)C)NC(=O)[C@@H]2CCCN2C(=O)[C@@H](Cc2ccc(O)cc2)NC(=O)[C@H](C(C)C)NC(=O)[C@@H](CCCCN)NC(=O)[C@H](CC(C)C)NC(=O)[C@@H](CCCCN)NC(=O)[C@H](C(C)C)NC(=O)[C@@H]2CCCN2C(=O)[C@@H](Cc2ccc(O)cc2)NC1=O [GS14K2K4K9K11],>200 µg/mL,25 µg/mL,25 µg/mL,>200 µg/mL,200 µM,100 µg/mL,>200 µg/mL,>200 µg/mL,>200 µg/mL,>200 µg/mL,50 µg/mL,>200 µg/mL,>200 µg/mL,–
CC(C)C[C@@H]1NC(=O)[C@H](CCCCN)NC(=O)[C@H](C(C)C)NC(=O)[C@H](CCCCN)NC(=O)[C@H](CC(C)C)NC(=O)[C@@H]2CCCN2C(=O)[C@@H](Cc2ccc(O)cc2)NC(=O)[C@H](C(C)C)NC(=O)[C@@H](CCCCN)NC(=O)[C@H](CC(C)C)NC(=O)[C@@H](CCCCN)NC(=O)[C@H](C(C)C)NC(=O)[C@@H]2CCCN2C(=O)[C@@H](Cc2ccc(O)cc2)NC1=O [GS14K2K4],>200 µg/mL,9 µg/mL,25 µg/mL,200 µg/mL,120 µM,50 µg/mL,200 µg/mL,100 µg/mL,>200 µg/mL,150 µg/mL,6.2 µg/mL,>200 µg/mL,>200 µg/mL,–
CC(C)C[C@@H]1NC(=O)[C@H](CCCCN)NC(=O)[C@H](C(C)C)NC(=O)[C@H](CCCCN)NC(=O)[C@H](CC(C)C)NC(=O)[C@@H]2CCCN2C(=O)[C@@H](Cc2ccc(O)cc2)NC(=O)[C@H](C(C)C)NC(=O)[C@H](CCCCN)NC(=O)[C@H](CC(C)C)NC(=O)[C@@H](CCCCN)NC(=O)[C@H](C(C)C)NC(=O)[C@@H]2CCCN2C(=O)[C@@H](Cc2ccc(O)cc2)NC1=O [GS14K2],50 µg/mL,0.8 µg/mL,3 µg/mL,25 µg/mL,50 µM,–,6.2 µg/mL,6.2 µg/mL,1.5 µg/mL,75 µg/mL,3.1 µg/mL,50 µg/mL,100 µg/mL,62 µg/mL
CC(C)C[C@@H]1NC(=O)[C@H](CCCCN)NC(=O)[C@H](C(C)C)NC(=O)[C@@H]2CCCN2C(=O)[C@@H](Cc2ccc(O)cc2)NC(=O)[C@H](CC(C)C)NC(=O)[C@H](CCCCN)NC(=O)[C@H](C(C)C)NC(=O)[C@@H](CCCCN)NC(=O)[C@H](CC(C)C)NC(=O)[C@@H]2CCCN2C(=O)[C@@H](Cc2ccc(O)cc2)NC(=O)[C@H](C(C)C)NC(=O)[C@H](CCCCN)NC1=O [GS14K9],25 µg/mL,1.5 µg/mL,6.2 µg/mL,17 µg/mL,60 µM,–,6.2 µg/mL,6.2 µg/mL,1.5 µg/mL,50 µg/mL,3.1 µg/mL,25 µg/mL,50 µg/mL,62 µg/mL
CC(C)C[C@@H]1NC(=O)[C@H](CCCCN)NC(=O)[C@H](C(C)C)NC(=O)[C@H](CCCCN)NC(=O)[C@H](CC(C)C)NC(=O)[C@@H]2CCCN2C(=O)[C@@H](Cc2ccc(O)cc2)NC(=O)[C@H](C(C)C)NC(=O)[C@H](CCCCN)NC(=O)[C@@H](CC(C)C)NC(=O)[C@H](CCCCN)NC(=O)[C@H](C(C)C)NC(=O)[C@@H]2CCCN2C(=O)[C@@H](Cc2ccc(O)cc2)NC1=O [GS14L3],>200 µg/mL,0.8 µg/mL,>200 µg/mL,>200 µg/mL,35 µM,200 µg/mL,100 µg/mL,50 µg/mL,0.8 µg/mL,>200 µg/mL,50 µg/mL,200 µg/mL,>200 µg/mL,200 µg/mL
CC(C)C[C@@H]1NC(=O)[C@H](CCCCN)NC(=O)[C@H](C(C)C)NC(=O)[C@@H]2CCCN2C(=O)[C@@H](Cc2ccc(O)cc2)NC(=O)[C@@H](CC(C)C)NC(=O)[C@H](CCCCN)NC(=O)[C@H](C(C)C)NC(=O)[C@H](CCCCN)NC(=O)[C@H](CC(C)C)NC(=O)[C@@H]2CCCN2C(=O)[C@@H](Cc2ccc(O)cc2)NC(=O)[C@H](C(C)C)NC(=O)[C@H](CCCCN)NC1=O [GS14L12],200 µg/mL,3.1 µg/mL,50 µg/mL,150 µg/mL,32 µM,17 µg/mL,9 µg/mL,3.1 µg/mL,0.8 µg/mL,200 µg/mL,3.1 µg/mL,50 µg/mL,100 µg/mL,–
